Results reported in US8735424B2 (Novartis AG, priority 2008, dated 2014).

Key:
PIM2 = PIM2 (Homo sapiens, UniProt Q9P1W9); assay: Pim2 ATP depletion assay; assay type: biochemical; settings: 4 μM ATP, 5 nM PIM2
Procedure: The activity of PIM2 is measured using a luciferase-luciferin based ATP detection reagent to quantify ATP depletion resulting from kinase-catalyzed phosphoryl transfer to a peptide substrate. Compounds to be tested are dissolved in 100% DMSO and directly distributed into white 384-well plates at 0.5 μl per well. To start the reaction, 10 μl of 10 nM Pim2 kinase and 20 μM BAD peptide (RSRHSSYPAGT-OH) in assay buffer (50 mM HEPES pH 7.5, 5 mM MgCl2, 1 mM DTT, 0.05% BSA) is added into each well. After 15 minutes, 10 μl of 8 μM ATP in assay buffer is added. Final assay concentrations are 5 nM PIM2, 4 μM ATP, 10 μM BAD peptide and 2.5% DMSO. The reaction is performed until approximately 50% of the ATP is depleted, then stopped with the addition of 20 μl KinaseGlo Plus (Promega Corporation) solution. The stopped reaction is incubated for 10 minutes and the remaining ATP detected via luminescence on the Victor2 (Perkin Elmer).

KMS11 cells = assay: Cell proliferation assay (CellTiter-Glo); assay type: cell-based; settings: KMS-11, 72 h; KMS11 human myeloma cell line, 3 days
Procedure: KMS11 (human myeloma cell line), were cultured in IMDM supplemented with 10% FBS, sodium pyruvate and antibiotics. Cells were plated in the same medium at a density of 2000 cells per well into 96 well tissue culture plates, with outside wells vacant, on the day of assay. MM1.s (human myeloma cell line), were cultured in RPMI1640 supplemented with 10% FBS, sodium pyruvate and antibiotics. Cells were plated in the same medium at a density of 5000 cells per well into 96 well tissue culture plates, with outside wells vacant, on the day of assay.
Test compounds supplied in DMSO were diluted into DMSO at 500 times the desired final concentrations before dilution into culture media to 2 times final concentrations. Equal volumes of 2× compounds were added to the cells in 96 well plates and incubated at 37° C. for 3 days.
After 3 days plates were equilibrated to room temperature and equal volume of CellTiter-Glow Reagent (Promega) was added to the culture wells. The plates were agitated briefly and luminescent signal was measured with luminometer. The percent inhibition of the signal seen in cells treated with DMSO alone vs. cells treated with control compound was calculated and used to determine EC50 values (i.e., the concentration of a test compound that is required to obtain 50% of the maximum effect in the cells) for tested compounds, as shown in Example 41.

PIM1 = PIM1 (Homo sapiens, UniProt P11309); assay: Pim1 ATP depletion assay; assay type: biochemical; settings: 20 μM ATP, 2.5 nM PIM1
Sequence of PIM1 (P11309 whole entry): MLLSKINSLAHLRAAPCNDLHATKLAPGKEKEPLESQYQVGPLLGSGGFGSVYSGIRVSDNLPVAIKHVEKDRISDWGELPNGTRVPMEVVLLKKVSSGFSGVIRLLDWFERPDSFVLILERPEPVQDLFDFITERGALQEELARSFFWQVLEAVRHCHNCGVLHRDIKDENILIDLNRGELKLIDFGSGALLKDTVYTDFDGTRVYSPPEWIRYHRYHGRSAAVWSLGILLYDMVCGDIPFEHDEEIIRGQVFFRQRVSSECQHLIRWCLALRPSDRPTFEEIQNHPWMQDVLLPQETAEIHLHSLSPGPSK
Procedure: The activity of PIM1 is measured using a luciferase-luciferin based ATP detection reagent to quantify ATP depletion resulting from kinase-catalyzed phosphoryl transfer to a peptide substrate. Compounds to be tested are dissolved in 100% DMSO and directly distributed into white 384-well plates at 0.5 μl per well. To start the reaction, 10 μl of 5 nM Pim1 kinase and 80 μM BAD peptide (RSRHSSYPAGT-OH) in assay buffer (50 mM HEPES pH 7.5, 5 mM MgCl2, 1 mM DTT, 0.05% BSA) is added into each well. After 15 minutes, 10 μl of 40 μM ATP in assay buffer is added. Final assay concentrations are 2.5 nM PIM1, 20 μM ATP, 40 μM BAD peptide and 2.5% DMSO. The reaction is performed until approximately 50% of the ATP is depleted, then stopped with the addition of 20 μl KinaseGlo Plus (Promega Corporation) solution. The stopped reaction is incubated for 10 minutes and the remaining ATP detected via luminescence on the Victor2 (Perkin Elmer). […] IC50, the half maximal inhibitory concentration, represents the concentration of a test compound that is required for 50% inhibition of its target in vitro.

PIM3 = PIM3 (Homo sapiens, UniProt Q86V86); assay: Pim3 ATP depletion assay; assay type: biochemical; settings: 40 μM ATP
Procedure: The activity of PIM3 is measured using a luciferase-luciferin based ATP detection reagent to quantify ATP depletion resulting from kinase-catalyzed phosphoryl transfer to a peptide substrate. Compounds to be tested are dissolved in 100% DMSO and directly distributed into white 384-well plates at 0.5 μl per well. To start the reaction, 10 μl of 10 nM Pim3 kinase and 200 μM BAD peptide (RSRHSSYPAGT-OH) in assay buffer (50 mM HEPES pH 7.5, 5 mM MgCl2, 1 mM DTT, 0.05% BSA) is added into each well. After 15 minutes, 10 μl of 80 μM ATP in assay buffer is added. Final assay concentrations are 5 nM PIM1, 40 μM ATP, 100 μM BAD peptide and 2.5% DMSO. The reaction is performed until approximately 50% of the ATP is depleted, then stopped by the addition of 20 μl KinaseGlo Plus (Promega Corporation) solution. The stopped reaction is incubated for 10 minutes and the remaining ATP detected via luminescence on the Victor2 (Perkin Elmer).

Sequence of PIM2 (Q9P1W9 whole entry): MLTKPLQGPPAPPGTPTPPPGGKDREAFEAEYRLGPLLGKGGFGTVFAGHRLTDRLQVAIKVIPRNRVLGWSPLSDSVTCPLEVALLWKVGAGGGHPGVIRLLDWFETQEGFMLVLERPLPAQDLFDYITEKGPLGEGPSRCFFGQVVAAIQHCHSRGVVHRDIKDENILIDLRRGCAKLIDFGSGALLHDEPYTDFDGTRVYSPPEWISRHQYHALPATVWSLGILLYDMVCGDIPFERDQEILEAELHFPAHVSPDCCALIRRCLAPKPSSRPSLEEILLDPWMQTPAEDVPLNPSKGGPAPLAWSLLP

Row | SMILES | IC50 (PIM2) [nM] | EC50 (KMS11 cells) [nM] | IC50 (PIM1) [nM] | IC50 (PIM3) [nM]
1 | Nc1ccc(-c2cccc(F)c2F)nc1-c1cc2c(N3CCC[C@H](N)C3)ccnc2cn1 [Example 18, (S)-2-(4-(3-aminopiperidin-1-yl)-1,7-naphthyridin-6-yl)-6-(2,3-difluorophenyl)pyridin-3-amine] | 71 | 4900 | 2 | 4
2 | CS(=O)(=O)c1cccc(-c2ccc(N)c(-c3cc4c(N5CCC[C@H](N)C5)ccnc4cn3)n2)c1 [Example 22, (S)-2-(4-(3-aminopiperidin-1-yl)-1,7-naphthyridin-6-yl)-6-(3-(methylsulfonyl)phenyl)pyridin-3-amine] | 280 |  | 4 | 10
3 | Cc1cc(-c2ccnc3cnc(-c4nc(-c5c(F)cccc5F)ccc4N)cc23)cc(N)n1 [Example 3, 4-(6-(3-amino-6-(2,6-difluorophenyl)pyridin-2-yl)-1,7-naphthyridin-4-yl)-6-methylpyridin-2-amine] | 809 |  | 15 | 25
4 | Nc1ccc(-c2ccccc2)nc1-c1cc2c(N3CCC[C@H](N)C3)ccnc2cn1 [Example 20, (S)-2-(4-(3-aminopiperidin-1-yl)-1,7-naphthyridin-6-yl)-6-phenylpyridin-3-amine] | 62 | 4200 | 3 | 4
5 | N[C@H]1CCCN(c2ccnc3ccc(-c4nccc(-c5nccs5)n4)cc23)C1 [Example 28, (S)-1-(6-(4-(thiazol-2-yl)pyrimidin-2-yl)quinolin-4-yl)piperidin-3-amine] | 68 | 770 | 7 | 7
6 | N[C@@H]1CN(c2ccnc3ccc(-c4cccc(-c5c(F)cccc5F)n4)cc23)CC[C@H]1F [Example 32, (3R,4R)-1-(6-(6-(2,6-difluorophenyl)pyridin-2-yl)quinolin-4-yl)-4-fluoropiperidin-3-amine] | 604 |  | 27 | 42
7 | C[C@@H]1C[C@H](N)CN(c2ccnc3ccc(-c4cccc(-c5c(F)cccc5F)n4)cc23)C1 [Example 34, (3S,5R)-1-(6-(6-(2,6-difluorophenyl)pyridin-2-yl)quinolin-4-yl)-5-methylpiperidin-3-amine] | 33 |  | 2 | 7
8 | Cc1cc(-c2ccnc3cnc(-c4nc(-c5cc(C(=O)NC(C)C)ccc5F)ccc4N)cc23)cc(N)n1 [Example 4, 3-(5-amino-6-(4-(2-amino-6-methylpyridin-4-yl)-1,7-naphthyridin-6-yl)pyridin-2-yl)-4-fluoro-N-isopropylbenzamide] | 350 |  | 24 | 40
9 | CC(C)NC(=O)c1ccc(F)c(-c2ccc(N)c(-c3cc4c(N5CCC[C@@H](N)C5)ccnc4cn3)n2)c1 [Example 8, (R)-3-(5-amino-6-(4-(3-aminopiperidin-1-yl)-1,7-naphthyridin-6-yl)pyridin-2-yl)-4-fluoro-N-isopropylbenzamide] | 81 | 4500 | 16 | 21
10 | Nc1ccc(-c2cc(C(=O)NC3CCCCC3)ccc2F)nc1-c1cc2c(N3CCC[C@H](N)C3)ccnc2cn1 [Example 15, (S)-3-(5-amino-6-(4-(3-aminopiperidin-1-yl)-1,7-naphthyridin-6-yl)pyridin-2-yl)-N-cyclohexyl-4-fluorobenzamide] | 74 | 3100 | 9 | 22
11 | C[C@@H]1C[C@H](N)CN(c2ccnc3ccc(-c4cccc(-c5nccs5)n4)cc23)C1 [Example 31, (3S,5R)-5-methyl-1-(6-(6-(thiazol-2-yl)pyridin-2-yl)quinolin-4-yl)piperidin-3-amine] | 12 | 790 | 5 | 6
12 | N[C@@H]1CN(c2ccnc3ccc(-c4cccc(-c5nccs5)n4)cc23)CC[C@H]1O [Example 36, (3R,4R)-3-amino-1-(6-(6-(thiazol-2-yl)pyridin-2-yl)quinolin-4-yl)piperidin-4-ol] | 75 |  | 9 | 9
13 | COc1cccc(-c2ccc(N)c(-c3cc4c(N5CCC[C@H](N)C5)ccnc4cn3)n2)n1 [Example 14, (S)-6-(4-(3-aminopiperidin-1-yl)-1,7-naphthyridin-6-yl)-6′-methoxy-2,2′-bipyridin-5-amine] | 132 |  | 6 | 8
14 | CC(C)NC(=O)c1ccc(F)c(-c2ccc(N)c(-c3cc4c(N5CCC[C@H](N)C5)c(F)cnc4cn3)n2)c1 [Example 2, (S)-3-(5-amino-6-(4-(3-aminopiperidin-1-yl)-3-fluoro-1,7-naphthyridin-6-yl)pyridin-2-yl)-4-fluoro-N-isopropylbenzamide] | 258 |  | 18 | 37
15 | N[C@H]1CCCN(c2ccnc3ccc(-c4cccc(-c5c(F)cccc5F)n4)cc23)C1 [Example 26, (S)-1-(6-(6-(2,6-difluorophenyl)pyridin-2-yl)quinolin-4-yl)piperidin-3-amine] | 331 |  | 16 | 26
16 | N[C@H]1CCCN(c2ccnc3ccc(-c4nccc(-c5ccccc5F)n4)cc23)C1 [Example 30] | 347 |  | 8 | 20
17 | Nc1ccc(-c2cccc(S(N)(=O)=O)c2)nc1-c1cc2c(N3CCC[C@H](N)C3)ccnc2cn1 [Example 21, (S)-3-(5-amino-6-(4-(3-aminopiperidin-1-yl)-1,7-naphthyridin-6-yl)pyridin-2-yl)benzenesulfonamide] | 160 |  | 2 | 8
18 | N[C@@H]1CN(c2ccnc3ccc(-c4cccc(-c5c(F)cccc5F)n4)cc23)CC[C@H]1O [Example 35, (3R,4R)-3-amino-1-(6-(6-(2,6-difluorophenyl)pyridin-2-yl)quinolin-4-yl)piperidin-4-ol] | 373 |  | 19 | 21
19 | Nc1ccc(-c2ccc(F)cc2F)nc1-c1cc2c(N3CCC[C@H](N)C3)ccnc2cn1 [Example 17, (S)-2-(4-(3-aminopiperidin-1-yl)-1,7-naphthyridin-6-yl)-6-(2,4-difluorophenyl)pyridin-3-amine] | 151 |  | 4 | 13
20 | N[C@@H]1CN(c2ccnc3ccc(-c4cccc(-c5nccs5)n4)cc23)CC[C@H]1F [Example 33, (3R,4R)-4-fluoro-1-(6-(6-(thiazol-2-yl)pyridin-2-yl)quinolin-4-yl)piperidin-3-amine] | 244 |  | 22 | 21
21 | N[C@H]1CCCN(c2ccnc3ccc(-c4nccc(-c5c(F)cccc5F)n4)cc23)C1 [Example 29] | 132 |  | 6 | 8
